Experimental data reported in patent US20160355483A1, “COMPOUND BINDING TO PPARG BUT NOT ACTING AS PROMOTER AND PHARMACEUTICAL COMPOSITION FOR TREATING PPARG-RELATED DISEASES CONTAINING SAME AS ACTIVE INGREDIENT” (Hyundai Pharm Co., Ltd., priority 2014, published 2016).

Molecular target: T1, PPARG (peroxisome proliferator activated receptor-gamma), GST-PPARG-LBD (Homo sapiens, UniProt P37231)
T1 construct: 15 μL of 5 nM GST-PPARG-LBD and 5 nM Tb-GST-antibody were added; purchased Invitrogen PV4894
T1 sequence (P37231 238-503 limits assumed): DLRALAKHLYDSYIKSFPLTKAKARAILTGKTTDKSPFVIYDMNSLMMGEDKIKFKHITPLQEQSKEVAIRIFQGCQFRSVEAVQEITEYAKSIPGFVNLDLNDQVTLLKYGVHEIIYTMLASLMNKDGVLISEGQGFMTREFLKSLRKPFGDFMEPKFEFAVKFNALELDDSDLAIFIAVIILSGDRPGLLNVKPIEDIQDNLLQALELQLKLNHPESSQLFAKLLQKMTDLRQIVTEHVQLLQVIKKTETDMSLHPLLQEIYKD
Assay: LanthaScreen TR-FRET PPARG Competitive Binding Assay
Set-up: key: “+” indicates the degree of the binding activity, and as the number of “+” increases, the binding activity is stronger; ++: “+” indicates the degree of the binding activity, and as the number of “+” increases, the binding activity is stronger; +++: “+” indicates the degree of the binding activity, and as the number of “+” increases, the binding activity is stronger; ++++: “+” indicates the degree of the binding activity, and as the number of “+” increases, the binding activity is stronger
Conditions: degree of binding activity
Description: The following experiment was performed to evaluate the PPARG (peroxisome proliferator activated receptor-gamma) binding capacity and transcriptional activity of the compounds prepared in the examples of the invention. For the experiment, LanthaScreen™ TR-FRET PPARG Competitive Binding Assay Kit (PV4894, Invitrogen) was used according to the manufacturer's instruction. […] The mixture was loaded in a 384-well plate (Greiner, 784075) by 20 μL per well, followed by reaction at room temperature for 1 hour. Upon completion of the reaction, fluorescence value was measured by using Flexstation 3 (Molecular Devices) with time-resolved fluorescence (RFU) mode (excitation 1: 340 nm, emission 1: 518 nm, excitation 2: 340 nm, emission 2: 488 nm, integration delay 50 μs, integration 400 μs). The results were calculated by using 518 nm RFUs/488 nm RFUs ratio. The activity of the compounds of the invention was compared with that of the vehicle, which was calculated by ratio according to the formula [100%−compound of the example ratio/vehicle ratio]. At this time, the binding activity ratio to rosiglitazone was compared.

Row | Structure (SMILES) | Binding assay (1 μLM)
1 | O=C(NCc1ccccn1)c1ccc2c(c1)CCCN2Cc1ccc(-c2ccccc2C(=O)O)cc1 [Example 26, 4′-((6-((pyridine-2-ylmethyl)carbamoyl)-3,4-dihydroquinoline-1(2H)-yl)methyl)-[1,1′-biphenyl]-2-carboxylic acid] | ++
2 | O=C(NCc1ccncc1)c1ccc2c(c1)CCCN2Cc1ccc(-c2ccccc2C(=O)O)cc1 [Example 27, 4′-((6-((pyridine-4-ylmethyl)carbamoyl)-3,4-dihydroquinoline-1(2H)-yl)methyl)-[1,1′-biphenyl]-2-carboxylic acid] | +
3 | O=C(NCc1ccccc1)c1ccc2c(c1)CCCN2Cc1ccc(-c2ccccc2C(=O)O)cc1 [Example 28, 4′-((6-(benzylcarbamoyl)-3,4-dihydroquinoline-1(2H)-yl)methyl)-[1,1′-biphenyl]-2-carboxylic acid] | ++++
4 | O=C(NCc1ccccc1Br)c1ccc2c(c1)CCCN2Cc1ccc(-c2ccccc2C(=O)O)cc1 [Example 29, 4′-((6-((2-bromobenzyl)carbamoyl)-3,4-dihydroquinoline-1(2H)-yl)methyl)-[1,1′-biphenyl]-2-carboxylic acid] | ++++
5 | O=C(NCc1ccc2c(c1)OCCO2)c1ccc2c(c1)CCCN2Cc1ccc(-c2ccccc2C(=O)O)cc1 [Example 30, 4′-((6-(((2,3-dihydrobenzo[b][1,4]dioxin-6-yl)methyl)carbamoyl)-3,4-dihydroquinoline-1(2H)-yl)methyl)-[1,1′-biphenyl]-2-carboxylic acid] | +++
6 | O=C(NCc1ccc(Br)cc1)c1ccc2c(c1)CCCN2Cc1ccc(-c2ccccc2C(=O)O)cc1 [Example 31, 4′-((6-((4-bromobenzyl)carbamoyl)-3,4-dihydroquinoline-1 (2H)-yl)methyl)-[1,1′-biphenyl]-2-carboxylic acid] | ++++
7 | O=C(NCc1cccc(OC(F)(F)F)c1)c1ccc2c(c1)CCCN2Cc1ccc(-c2ccccc2C(=O)O)cc1 [Example 32, 4′-((6-((3-(trifluoromethoxy)benzyl)carbamoyl)-3,4-dihydroquinoline-1(2H)-yl)methyl)-[1,1′-biphenyl]-2-carboxylic acid] | +++
8 | C[C@H](NC(=O)c1ccc2c(c1)CCCN2Cc1ccc(-c2ccccc2C(N)=O)cc1)c1ccc(C(F)(F)F)cc1 [Example 33, (S)-1-((2′-carbamoyl-[1,1′-biphenyl]-4-yl)methyl)-N-(1-(4-(trifluoromethyl)phenyl)ethyl)-1,2,3,4-tetrahydroquinoline-6-carboxamide] | +++
9 | C[C@H](NC(=O)c1ccc2c(c1)CCCN2Cc1ccc(-c2ccccc2C(N)=O)cc1)c1ccc(OC(F)(F)F)cc1 [Example 34, (S)-1-((2′-carbamoyl-[1,1′-biphenyl]-4-yl)methyl)-N-(1-(4-(trifluoromethoxy)phenyl)ethyl)-1,2,3,4-tetrahydroquinoline-6-carboxamide] | ++++
10 | C[C@H](NC(=O)c1ccc2c(c1)CCCN2Cc1ccc(-c2ccccc2C(N)=O)cc1)c1cccc(Cl)c1 [Example 35, (S)-1-((2′-carbamoyl-[1,1′-biphenyl]-4-yl)methyl)-N-(1-(3-chlorophenyl)ethyl)-1,2,3,4-tetrahydroquinoline-6-carboxamide] | +++
11 | C[C@H](NC(=O)c1ccc2c(c1)CCCN2Cc1ccc(-c2ccccc2C(N)=O)cc1)c1ccc(Br)cc1 [Example 37, (S)—N-(1-(4-bromophenyl)ethyl)-1-((2′-carbamoyl-[1,1′-biphenyl]-4-yl)methyl)-1,2,3,4-tetrahydroquinoline-6-carboxamide] | +++
12 | C[C@H](NC(=O)c1ccc2c(c1)CCCN2Cc1ccc(-c2ccccc2C(N)=O)cc1)c1cccc2ccccc12 [Example 38, (S)-1-((2′-carbamoyl-[1,1′-biphenyl]-4-yl)methyl)-N-(1-(naphthalene-1-yl)ethyl)-1,2,3,4-tetrahydroquinoline-6-carboxamide] | ++
13 | C[C@H](NC(=O)c1ccc2c(c1)CCCN2Cc1ccc(-c2ccccc2C(N)=O)cc1)c1ccc(F)c(F)c1 [Example 39, (S)-1-((2′-carbamoyl-[1,1′-biphenyl]-4-yl)methyl)-N-(1-(3,4-difluorophenyl)ethyl)-1,2,3,4-tetrahydroquinoline-6-carboxamide] | +++
14 | COc1cccc([C@H](C)NC(=O)c2ccc3c(c2)CCCN3Cc2ccc(-c3ccccc3C(N)=O)cc2)c1 [Example 40, (S)-1-((2′-carbamoyl-[1,1′-biphenyl]-4-yl)methyl)-N-(1-(3-methoxyphenyl)ethyl)-1,2,3,4-tetrahydroquinoline-6-carboxamide] | +++
15 | COc1ccccc1[C@H](C)NC(=O)c1ccc2c(c1)CCCN2Cc1ccc(-c2ccccc2C(N)=O)cc1 [Example 41, (S)-1-((2′-carbamoyl-[1,1′-biphenyl]-4-yl)methyl)-N-(1-(2-methoxyphenyl)ethyl)-1,2,3,4-tetrahydroquinoline-6-carboxamide] | +++
16 | C[C@H](NC(=O)c1ccc2c(c1)CCCN2Cc1ccc(-c2ccccc2C(N)=O)cc1)c1ccccc1F [Example 42, (S)-1-((2′-carbamoyl-[1,1′-biphenyl]-4-yl)methyl)-N-(1-(2-fluorophenyl)ethyl)-1,2,3,4-tetrahydroquinoline-6-carboxamide] | +++
17 | C[C@H](NC(=O)c1ccc2c(c1)CCCN2Cc1ccc(-c2ccccc2C(N)=O)cc1)c1ccccc1C(F)(F)F [Example 43, (S)-1-((2′-carbamoyl-[1,1′-biphenyl]-4-yl)methyl)-N-(1-(2-(trifluoromethyl)phenyl)ethyl)-1,2,3,4-tetrahydroquinoline-6-carboxamide] | ++
18 | C[C@H](NC(=O)c1ccc2c(c1)CCCN2Cc1ccc(-c2ccccc2C(N)=O)cc1)c1cccc(F)c1 [Example 45, (S)-1-((2′-carbamoyl-[1,1′-biphenyl]-4-yl)methyl)-N-(1-(3-fluorophenyl)ethyl)-1,2,3,4-tetrahydroquinoline-6-carboxamide] | +++
19 | C[C@H](NC(=O)c1ccc2c(c1)CCCN2Cc1ccc(-c2ccccc2C(N)=O)cc1)c1cccc(OC(F)(F)F)c1 [Example 46, (S)-1-((2′-carbamoyl-[1,1′-biphenyl]-4-yl)methyl)-N-(1-(3-(trifluoromethoxy)phenyl)ethyl)-1,2,3,4-tetrahydroquinoline-6-carboxamide] | +++
20 | C[C@H](NC(=O)c1ccc2c(c1)CCCN2Cc1ccc(-c2ccccc2C(N)=O)cc1)c1cccc(C(F)(F)F)c1 [Example 47, (S)-1-((2′-carbamoyl-[1,1′-biphenyl]-4-yl)methyl)-N-(1-(3-(trifluoromethyl)phenyl)ethyl)-1,2,3,4-tetrahydroquinoline-6-carboxamide] | +++
21 | NC(=O)c1ccccc1-c1ccc(CN2CCCc3cc(C(=O)NCc4ccncc4)ccc32)cc1 [Example 48, 1-((2′-carbamoyl-[1,1′-biphenyl]-4-yl)methyl)-N-(pyridine-4-ylmethyl)-1,2,3,4-tetrahydroquinoline-6-carboxamide] | +
22 | Cc1ccc([C@H](C)NC(=O)c2ccc3c(c2)CCCN3Cc2ccc(-c3ccccc3C(N)=O)cc2)cc1F [Example 49, (S)-1-((2′-carbamoyl-[1,1′-biphenyl]-4-yl)methyl)-N-(1-(3-fluoro-4-methylphenyl)ethyl)-1,2,3,4-tetrahydroquinoline-6-carboxamide] | +++
23 | NC(=O)c1ccccc1-c1ccc(CN2CCCc3cc(C(=O)NCc4ccccc4)ccc32)cc1 [Example 50, N-benzyl-1-((2′-carbamoyl-[1,1′-biphenyl]-4-yl)methyl)-1,2,3,4-tetrahydroquinoline-6-carboxamide] | +++
24 | NC(=O)c1ccccc1-c1ccc(CN2CCCc3cc(C(=O)NCc4ccccc4Br)ccc32)cc1 [Example 51, N-(2-bromobenzyl)-1-((2′-carbamoyl-[1,1′-biphenyl]-4-yl)methyl)-1,2,3,4-tetrahydroquinoline-6-carboxamide] | +++
25 | NC(=O)c1ccccc1-c1ccc(CN2CCCc3cc(C(=O)NCc4ccc5c(c4)OCCO5)ccc32)cc1 [Example 52, 1-((2′-carbamoyl-[1,1′-biphenyl]-4-yl)methyl)-N-((2,3-dihydrobenzo[b][1,4]dioxin-6-yl)methyl)-1,2,3,4-tetrahydroquinoline-6-carboxamide] | +++
